Converted amounts (≈) assume the structure as drawn. Where two headings read alike, the source gives them in different places.
Experiments:
[1] = from single dose; cited from earlier work
L. gasseri = experiment: MIC against commensal vaginal Lactobacillus strains; assay type: cell-based, Lactobacillus gasseri; details: for MIC: Lactobacillus gasseri; for MIC Range: Table 6, L. gasseri (4 strains)
Excerpt: (§1) N. gonorrhoeae pathogenesis greatly depends on colonization of the reproductive tract. One of the natural barriers of such colonization is an intact healthy microbiome. Species of lactobacilli present in the genitourinary tract play a significant role in hindering colonization by Neisseria(1).
(§2) A healthy vaginal microbiome that is dominated by Lactobacillus spp. is less susceptible to N. gonorrhoeae infection and other sexually transmitted diseases (STDs). […] We tested the activity of azoles against important members of healthy vaginal microbiota that inhibit N. gonorrhoeae colonization.

N. meingitidis = experiment: MIC against Neisseria spp.; assay type: cell-based, Neisseria meningitidis; details: N. meingitidis (5 strains)
N. gonorrhoeae [2] = experiment: Drug library screen against N. gonorrhoeae; assay type: cell-based, Neisseria gonorrhoeae; details: Johns Hopkins Clinical Compounds Library, MCE FDA-Approved Drug Library, Pharmakon library; killing in clinical range
Excerpt: To identify drugs capable of killing Neisseria gonorrhoeae, the Johns Hopkins Clinical Compounds Library (1514), the MCE FDA-Approved Drug Library (2441), and the Pharmakon library (1600) were screened against N. gonorrhoeae. Positive hits that are capable of killing Neisseria gonorrhoeae in clinical range were identified (itraconazole, ravuconazole and isavuconazole).

N. mucosa = experiment: MIC against Neisseria spp.; assay type: cell-based; details: N. mucosa (1 strain)
Excerpt: (§3) Intrigued by the specificity and potent activity of azoles against N. gonorrhoeae, we evaluated the extent of the azoles' antibacterial activity against other Neisseria species (Table 8).

N. flavescens = experiment: MIC against Neisseria spp.; assay type: cell-based; details: N. flavescens (1 strain)
Excerpt: as §3

N. lactamica = experiment: MIC against Neisseria spp.; assay type: cell-based; details: N. lactamica (1 strain)
Excerpt: as §3

[3] = test system: resistant N. gonorrhoeae isolates; experiment: MIC against resistant N. gonorrhoeae isolates by agar dilution; assay type: cell-based, Neisseria gonorrhoeae
Lactobacillus rhamnosus = experiment: MIC against normal gut microbiota; assay type: cell-based; details: Lactobacillus rhamnosus (1 strain)
Excerpt: (§4) Disrupting the intestinal microbiota using broad-spectrum antimicrobial therapy increases the susceptibility of hosts to C. difficile colonization.

Staphylococcus aureus = experiment: MIC against normal gut microbiota; assay type: cell-based; details: Staphylococcus aureus (1 strain)
Excerpt: as §4

[4] = test system: Bifidobacterium angulatum; experiment: MIC against normal gut microbiota; assay type: cell-based; details: Bifidobacterium angulatum (1 strain)
Excerpt: as §4

Enterococcus faecalis = experiment: MIC against normal gut microbiota; assay type: cell-based; details: Enterococcus faecalis (1 strain)
Excerpt: as §4

Bacteroides dorei = experiment: MIC against normal gut microbiota; assay type: cell-based; details: Bacteroides dorei (2 strains)
Excerpt: as §4

Bacteroides fragilis = experiment: MIC against normal gut microbiota; assay type: cell-based; details: Bacteroides fragilis (4 strains)
Excerpt: as §4

Lactobacillus casei = experiment: MIC against normal gut microbiota; assay type: cell-based; details: Lactobacillus casei (1 strain)
Excerpt: as §4

Escherichia coli = experiment: MIC against normal gut microbiota; assay type: cell-based; details: Escherichia coli (1 strain)
Excerpt: as §4

Enterococcus faecium = experiment: MIC against normal gut microbiota; assay type: cell-based; details: Enterococcus faecium (1 strain)
Excerpt: as §4

Lactobacillus brevis = experiment: MIC against normal gut microbiota; assay type: cell-based; details: Lactobacillus brevis (1 strain)
Excerpt: as §4

[5] = MIC against normal gut microbiota; assay type: cell-based
Excerpt: as §4

L. jensenii = experiment: MIC against commensal vaginal Lactobacillus strains; assay type: cell-based, Lactobacillus jensenii; details: for MIC: Lactobacillus jensenii; for MIC Range: Table 6, L. jensenii (7 strains)
Excerpt: as §1, §2

[6] = test system: commensal vaginal lactobacilli strains; experiment: MIC against all commensal vaginal Lactobacillus strains tested; assay type: cell-based, Lactobacillus spp.; details: Lactobacillus; all strains of lactobacilli (Example 1 text); read-out: MIC
Excerpt: as §1, §2

L. crispatus = experiment: MIC against commensal vaginal Lactobacillus strains; assay type: cell-based, Lactobacillus crispatus; details: for MIC: Lactobacillus crispatus; for MIC Range: Table 6, L. crispatus (3 strains)
Excerpt: as §1, §2

N. gonorrhoeae isolates = experiment: MIC against panel of N. gonorrhoeae clinical isolates; assay type: cell-based, Neisseria gonorrhoeae; details: for MIC50: read-out: MIC50; for MIC90: read-out: MIC90
N. gonorrhoeae [7] = experiment: Post-antibiotic effect (PAE) against N. gonorrhoeae; assay type: cell-based, Neisseria gonorrhoeae; details: 1 h exposure at 10×MIC
Excerpt: Determining the PAE of a new antimicrobial is an important step for dosing and has clinical importance.

L. johnsonii = experiment: MIC against commensal vaginal Lactobacillus strains; assay type: cell-based, Lactobacillus johnsonii; details: for MIC: Lactobacillus johnsonii, L. johnsonii HM-643; for MIC Range: Table 6, L. johsonii (2 strains)
Excerpt: as §1, §2

[8] = Bacteroides adolescentis (2 strains)
[9] = Neisseria gonorrhoeae, Table 1, 104 N. gonorrhoeae isolates
[10] = Neisseria gonorrhoeae, Table 3, 103 N. gonorrhoeae isolates with different resistance profiles
[11] = Neisseria gonorrhoeae, panel of 84 N. gonorrhoeae clinical isolates
[12] = Table 3, 103 N. gonorrhoeae isolates with different resistance profiles

C[C@@H](c1nc(-c2ccc(C#N)cc2)cs1)[C@](O)(Cn1cncn1)c1ccc(F)cc1F [Ravuconazole]
half-life [1]: up to 8 days
MIC (L. gasseri; L. gasseri HM-407): > 256 µg/mL
MIC (L. gasseri; L. gasseri HM-642): > 256 µg/mL
MIC (L. gasseri; L. gasseri HM-644): > 256 µg/mL
MIC (L. gasseri; L. gasseri HM-647): > 256 µg/mL
MIC Range (L. gasseri): ≥256 µg/mL
MIC Range (N. meingitidis): 0.004 to 0.008 µg/mL
screening outcome (N. gonorrhoeae [2]): Positive hits
MIC Range (N. mucosa): 0.125 µg/mL (≈ 0.286 µM)
MIC Range (N. flavescens): 0.125 µg/mL (≈ 0.286 µM)
MIC Range (N. lactamica): 0.03 µg/mL (≈ 0.0686 µM)
MIC ([3]; strain CDC-174, agar dilution): 0.25 µg/mL (≈ 0.571 µM)
MIC ([3]; strain CDC-179, agar dilution): 0.06 µg/mL (≈ 0.137 µM)
MIC ([3]; strain CDC-181, agar dilution): 0.25 µg/mL (≈ 0.571 µM)
MIC ([3]; strain WHO-L, agar dilution): 0.25 µg/mL (≈ 0.571 µM)
MIC ([3]; strain WHO-X, agar dilution): 0.25 µg/mL (≈ 0.571 µM)
MIC ([3]; strain WHO-Y, agar dilution): 0.25 µg/mL (≈ 0.571 µM)
MIC ([3]; strain WHO-Z, agar dilution): 0.25 µg/mL (≈ 0.571 µM)
MIC Range (Lactobacillus rhamnosus): >256 µg/mL
MIC Range (Staphylococcus aureus): >256 µg/mL
MIC Range [4]: >256 µg/mL
MIC Range (Enterococcus faecalis): >256 µg/mL
MIC Range (Bacteroides dorei): >256 µg/mL
MIC Range (Bacteroides fragilis): >256 µg/mL
MIC Range (Lactobacillus casei): >256 µg/mL
MIC Range (Escherichia coli): >256 µg/mL
MIC Range (Enterococcus faecium): >256 µg/mL
MIC Range (Lactobacillus brevis): >256 µg/mL
MIC Range [5, 8]: >256 µg/mL
MIC Range ([5]; Bacteroides breve (2 strains)): >256 µg/mL
MIC Range ([5]; Bacteroides longum (2 strains)): >256 µg/mL
MIC (L. jensenii; L. jensenii HM-105): > 256 µg/mL
MIC (L. jensenii; L. jensenii HM-372): > 256 µg/mL
MIC (L. jensenii; L. jensenii HM-374): > 256 µg/mL
MIC (L. jensenii; L. jensenii HM-639): > 256 µg/mL
MIC (L. jensenii; L. jensenii HM-640): > 256 µg/mL
MIC (L. jensenii; L. jensenii HM-645): > 256 µg/mL
MIC (L. jensenii; L. jensenii HM-646): > 256 µg/mL
MIC Range (L. jensenii): ≥256 µg/mL
MIC [6]: > 256 µg/mL
MIC (L. crispatus; L. crispatus HM-103): > 256 µg/mL
MIC (L. crispatus; L. crispatus HM-371): > 256 µg/mL
MIC (L. crispatus; L. crispatus HM-638): > 256 µg/mL
MIC Range (L. crispatus): ≥256 µg/mL
MIC50 (N. gonorrhoeae isolates; [9]): 0.03 µg/mL (≈ 0.0686 µM)
MIC90 (N. gonorrhoeae isolates; [9]): 0.06 µg/mL (≈ 0.137 µM)
MIC50 (N. gonorrhoeae isolates; [10]): 0.03 µg/mL (≈ 0.0686 µM)
MIC90 (N. gonorrhoeae isolates; [10]): 0.06 µg/mL (≈ 0.137 µM)
MIC50 (N. gonorrhoeae isolates; [11]): 0.03 µg/mL (≈ 0.0686 µM)
MIC90 (N. gonorrhoeae isolates; [11]): 0.06 µg/mL (≈ 0.137 µM)
MIC (N. gonorrhoeae isolates; Neisseria gonorrhoeae, 103 N. gonorrhoeae isolates, read-out: highest MIC value): 0.25 µg/mL (≈ 0.571 µM)
MIC Range (N. gonorrhoeae isolates; [12]): 0.002 to 0.25 µg/mL
fold more potent antimicrobial activity than isavuconazole (N. gonorrhoeae isolates; from Table 3 and Table 8): ≥ 125 fold
PAE (N. gonorrhoeae [7]; strain FA 1090): 12 h
PAE (N. gonorrhoeae [7]; strain WHO P): >16 h
PAE (N. gonorrhoeae [7]; strain WHO Y): 16 h
MIC (L. johnsonii): > 256 µg/mL
MIC Range (L. johnsonii): ≥256 µg/mL

CCC(C)n1ncn(-c2ccc(N3CCN(c4ccc(OCC5COC(Cn6cncn6)(c6ccc(Cl)cc6Cl)O5)cc4)CC3)cc2)c1=O (stereo not shown) [Itraconazole]
MIC (L. gasseri; L. gasseri HM-407): > 256 µg/mL
MIC (L. gasseri; L. gasseri HM-642): > 256 µg/mL
MIC (L. gasseri; L. gasseri HM-644): > 256 µg/mL
MIC (L. gasseri; L. gasseri HM-647): > 256 µg/mL
MIC Range (L. gasseri): ≥256 µg/mL
MIC Range (N. meingitidis): 0.125 to 1 µg/mL
MIC Range (N. mucosa): 64 µg/mL (≈ 90.7 µM)
MIC Range (N. flavescens): 64 µg/mL (≈ 90.7 µM)
MIC Range (N. lactamica): 4 µg/mL (≈ 5.67 µM)
MIC Range (Lactobacillus rhamnosus): >256 µg/mL
MIC Range (Staphylococcus aureus): >256 µg/mL
MIC Range [4]: >256 µg/mL
MIC Range (Enterococcus faecalis): >256 µg/mL
MIC Range (Bacteroides dorei): >256 µg/mL
MIC Range (Bacteroides fragilis): >256 µg/mL
MIC Range (Lactobacillus casei): >256 µg/mL
MIC Range (Escherichia coli): >256 µg/mL
MIC Range (Enterococcus faecium): >256 µg/mL
MIC Range (Lactobacillus brevis): >256 µg/mL
MIC Range [5, 8]: >256 µg/mL
MIC Range ([5]; Bacteroides breve (2 strains)): >256 µg/mL
MIC Range ([5]; Bacteroides longum (2 strains)): >256 µg/mL
MIC (L. jensenii; L. jensenii HM-105): > 256 µg/mL
MIC (L. jensenii; L. jensenii HM-372): > 256 µg/mL
MIC (L. jensenii; L. jensenii HM-374): > 256 µg/mL
MIC (L. jensenii; L. jensenii HM-639): > 256 µg/mL
MIC (L. jensenii; L. jensenii HM-640): > 256 µg/mL
MIC (L. jensenii; L. jensenii HM-645): > 256 µg/mL
MIC (L. jensenii; L. jensenii HM-646): > 256 µg/mL
MIC Range (L. jensenii): ≥256 µg/mL
MIC (L. crispatus; L. crispatus HM-103): > 256 µg/mL
MIC (L. crispatus; L. crispatus HM-371): > 256 µg/mL
MIC (L. crispatus; L. crispatus HM-638): > 256 µg/mL
MIC Range (L. crispatus): ≥256 µg/mL
MIC50 (N. gonorrhoeae isolates; [9]): 1 µg/mL (≈ 1.42 µM)
MIC90 (N. gonorrhoeae isolates; [9]): 2 µg/mL (≈ 2.83 µM)
MIC50 (N. gonorrhoeae isolates; [10]): 1 µg/mL (≈ 1.42 µM)
MIC90 (N. gonorrhoeae isolates; [10]): 2 µg/mL (≈ 2.83 µM)
MIC Range (N. gonorrhoeae isolates; Table 1, 104 N. gonorrhoeae isolates): 0.03 to 4 µg/mL
MIC Range (N. gonorrhoeae isolates; [12]): 0.03 to 8 µg/mL
PAE (N. gonorrhoeae [7]; strain FA 1090): 4 h
PAE (N. gonorrhoeae [7]; strain WHO P): 4 h
PAE (N. gonorrhoeae [7]; strain WHO Y): 4 h
MIC (L. johnsonii): > 256 µg/mL
MIC Range (L. johnsonii): ≥256 µg/mL

Reference: patent publication US20250281464A1, “TREATMENT OF PATHOGENIC NEISSERIA SP. INFECTION WITH TRIAZOLE ANTIFUNGAL AGENTS” (Virginia Tech Intellectual Properties, Inc., priority 2022, published 2025)
